This passage reports IC50 results from patent US11691951B2 (Curtana Pharmaceuticals, Inc., priority 2015, dated 2023).

Experiment [1] relates to GBM4 cells (human glioblastoma neurosphere cell culture). Put plainly: GBM4 viability assay (Cell Titer Glo luminescence, 3 days). The experiment is classed as cell-based. Particulars: 72 h, 3 days incubation. How it is done:
Example 283: GBM4 and GBM8 Viability Assay
Cell culture medium was prepared from a NSA proliferation kit (Neurocult) and NeuroCult supplements (Stemcell Tech Cat. #05751) and treated with 20 μL of 10 μg/mL rh EGF, 10 μL of 10 μg/mL rh bFGF and 10 μL of 0.2% Heparin. In this medium, human glioblastoma cells were cultured in ultra-low attachment tissue culture flasks until 1×10^6 cells ml was achieved (GBM4 and GBM8 are distinct neurosphere cell cultures derived from these human patient tissues). GBM4 and GBM8 cells were dissociated and 10 mL of media containing 4000 human glioblastoma cells per 90 uL were transferred to an ultra-low binding 96-well plate and incubated at 37° C. overnight. On the following day, 10 μL of a 1% DMSO solution of test compound in assay medium was added to wells containing the cell suspension and the mixture incubated at 37° C. for 3 days. At this time, the plate was removed from the incubator and allowed to reach room temperature. After about 30 minutes, 50 μL of Cell Titer Glo solution was added to each well and the plate shaken for 1 minute at low speed. After 10 minutes luminescence was recorded using a Tecan Safire2 reader.
Reduction in luminescence compared to DMSO only control wells was used to determine the percentage inhibition of cell growth. IC50s were calculated using the % inhibition of luminescence for serial dilutions of compounds fitted to a 4-parameter fit within the Prism (San Diego) curve fitting program.
(Cellular ATP, detected with luciferase, serves as a proxy for viable cell number.)

For experiment [2], the system named is GBM8 cells (human glioblastoma neurosphere cell culture). The experiment is described as follows: GBM8 viability assay (Cell Titer Glo luminescence, 3 days). The experiment is classed as cell-based. The conditions noted are these: 72 h, 3 days incubation. An outline of the steps: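 Patient-derived neurosphere cells (4000/well) in NeuroCult medium with rh EGF, rh bFGF and heparin, ultra-low attachment, dosed after overnight settling; 3 days at 37 °C. CellTiter-Glo luminescence versus DMSO controls gave % growth inhibition; IC50 from 4-parameter fit of serial dilutions.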

Where a name gives a salt, the structure may show the parent alone.

For orientation: IC50 means the concentration that inhibits the measured activity by half. In the case of `Cc1cc(N2CCN(C)CC2)nc(NC(=O)Nc2ccc(Cl)c(Cl)c2)n1` [Compound 5, 1-(3,4-dichlorophenyl)-3-{6-methyl-4-(4-methyl-piperazin-1-yl-)pyrimidin-2-yl}-urea], in experiment [1], the IC50 fell in the range of 10000 to 30000 nM. Regarding `Cc1cc(Nc2ccncc2)nc(NC(=O)Nc2ccc(Cl)c(Cl)c2)n1` [Compound 39, 2-[3-(3,4-dichlorophenyl)ureido]-6-methyl-4-(4-pyridylamino)-pyrimidine], the IC50 in experiment [1] and in experiment [2] was 1000 to 10000 nM in each case. Take `CNCCN(C)c1cc(C)nc(NC(=O)Nc2ccc(Cl)c(Cl)c2)n1` [Compound 6, 1-(N-methyl{2-[3-(3,4-dichlorophenyl)ureido]-6-methyl-4-pyrimidinyl}amino)-2-(methylamino)ethane]: the IC50 in experiment [1] and in experiment [2] was 1000 to 10000 nM each time. For the compound `CCN1CCCC(Nc2cc(C)nc(NC(=O)Nc3ccc(Cl)c(Cl)c3)n2)C1` (racemic) [Compound 30, (±)-2-[3-(3,4-dichlorophenyl)ureido]-4-(1-ethyl-piperidin-3-yl-amino)-6-methylpyrimidine], the half-maximal inhibitory concentration (IC50) in experiment [1] and in experiment [2] was 10000 to 30000 nM each time.

For `Cc1cc(NC2CCCNC2)nc(NC(=O)Nc2ccc(Cl)c(Cl)c2)n1` (racemic) [Compound 24, (±)-2-[3-(3,4-dichlorophenyl)ureido]-6-methyl-4-(3-piperidylamino)pyrimidine hydrochloride], the IC50 in experiment [1] and in experiment [2] was below 1000 nM each time. Turning to `Cc1cc(N2CCOCC2)nc(NC(=O)Nc2ccc(Cl)c(Cl)c2)n1` [Compound 4, 1-(3,4-dichlorophenyl)-3-(6-methyl-4-morpholino-2-pyrimidinyl) Urea], the IC50 was in the range of 10000 to 30000 nM in experiment [1] and 1000 to 10000 nM in experiment [2]. For the compound `CCN1CCCC(Nc2cc(C)nc(N3CCN(c4ccc(Cl)c(Cl)c4)C3=O)n2)C1` (racemic) [Compound 34, (±)-1-(3,4-dichlorophenyl)-3-[4-(1-ethyl-3-piperidylamino)-6-methyl-2-pyrimidinyl]-2-imidazolidinone], the IC50 in experiment [1] was 10000 to 30000 nM; in experiment [2], 1000 to 10000 nM. For `Cc1cc(NCCCN(C)C)nc(NC(=O)Nc2ccc(Cl)c(Cl)c2)n1` [Compound 8, 1-{2-[3-(3,4-Dichlorophenyl)ureido]-6-methyl-pyrimidin-4-yl}-amino-3-(dimethylamino)propane], the IC50 in experiment [1] and in experiment [2] was below 1000 nM each time. Consider `Cc1cc(NCCCO)nc(NC(=O)Nc2ccc(Cl)c(Cl)c2)n1` [Compound 7, 3-{2-[3-(3,4-dichlorophenyl)ureido]-6-methyl-pyrimidin-4-yl}-aminopropanol], for which the IC50 in experiment [1] and in experiment [2] was below 1000 nM each time.

Turning to `Cc1cc(NCCCN(C)C)nc(NC(=O)Nc2ccc3c(c2)OCO3)n1` [Compound 281, 1-(benzo[d][1,3]dioxol-5-yl)-3-(4-((3-(dimethylamino)propyl)amino)-6-methylpyrimidin-2-yl)urea], the IC50 in experiment [2] was 1000 to 10000 nM. `COC(=O)CCNc1cc(C)nc(NC(=O)Nc2ccc(Cl)c(Cl)c2)n1` [Compound 20] gave an IC50 in experiment [2] below 1000 nM.

In experiment [2], `CCCNc1cc(C)nc(NC(=O)Nc2ccc(OC)cc2)n1` [Compound 128] registered an IC50 below 1000 nM.

`Cc1ccc(NC(=O)Nc2nc(C)cc(NCC3CCCNC3)n2)cc1` (stereo not shown) [Compound 249, 1-(4-methyl-6-((piperidin-3-ylmethyl)amino)pyrimidin-2-yl)-3-(p-tolyl)urea] came in with an IC50 in experiment [2] of 1000 to 10000 nM. With `Cc1cc(NCCN(C)C)nc(NC(=O)Nc2ccc(Cl)c(C(F)(F)F)c2)n1` [Compound 48], the IC50 in experiment [2] lay within 1000 to 10000 nM. `CNCCCCNc1cc(C)nc(NC(=O)Nc2ccc(Cl)c(Cl)c2)n1` [Compound 26, 1-(3,4-dichlorophenyl)-3-(4-methyl-6-((4-(methylamino)butyl)amino)pyrimidin-2-yl)urea] came in with an IC50 in experiment [2] below 1000 nM.

In the case of `Cc1cc(NCCCN(C)C)nc(NC(=O)Nc2ccc3c(c2)OCCO3)n1` [Compound 291, 1-(2,3-dihydrobenzo[b][1,4]dioxin-6-yl)-3-(4-((3-(dimethylamino)propyl)amino)-6-methylpyrimidin-2-yl)urea], in experiment [2], the IC50 is below 1000 nM. In the case of `COC(=O)CCNc1cc(C)nc(NC(=O)Nc2ccc(OC(F)(F)F)cc2)n1` [Compound 92], in experiment [2], the IC50 is below 1000 nM.

In experiment [2], `CC(=O)NCCCNc1cc(C)nc(NC(=O)Nc2ccc3c(c2)OCCO3)n1` [Compound 308, N-(3-{2-[3-(2,3-dihydro-benzo[1,4]dioxin-6-yl)-ureido]-6-methyl-pyrimidin-4-ylamino}-propyl)-acetamide] yielded an IC50 below 1000 nM. Consider `Cc1cccc(NC(=O)Nc2nc(C)cc(NCC3CCCN(C)C3)n2)c1` (stereo not shown) [Compound 214], for which, in experiment [2], the IC50 fell in the range of 1000 to 10000 nM. Take `COc1cccc(NC(=O)Nc2nc(C)cc(NCCCc3ncc[nH]3)n2)c1` [Compound 149]: in experiment [2], the IC50 was 1000 to 10000 nM.

With `Cc1cc(NCCOCCO)nc(NC(=O)Nc2ccc(C(F)(F)F)cc2)n1` [Compound 199], the IC50 in experiment [2] is below 1000 nM. On to `Cc1cccc(NC(=O)Nc2nc(C)cc(NCCN)n2)c1` [Compound 213], for which the IC50 in experiment [2] was below 1000 nM. In turn, `CNCCCN(C)c1cc(C)nc(NC(=O)Nc2ccc(C(F)(F)F)cc2)n1` [Compound 205] had an IC50 in experiment [2] of 1000 to 10000 nM. Consider `Cc1cc(NCCCN(C)C)nc(NC(=O)Nc2ccc(OC(F)(F)F)cc2)n1` [Compound 85, 1-(4-((3-(dimethylamino)propyl)amino)-6-methylpyrimidin-2-yl)-3-(4-(trifluoromethoxy)phenyl)urea], for which, in experiment [2], the IC50 is below 1000 nM. In turn, `CNCCCNc1cc(C)nc(NC(=O)Nc2ccc3c(c2)OCCO3)n1` [Compound 299, 1-(2,3-dihydrobenzo[b][1,4]dioxin-6-yl)-3-(4-methyl-6-((3-(methylamino)propyl)amino)pyrimidin-2-yl)urea] registered an IC50 in experiment [2] of 1000 to 10000 nM. The same measure, in the same setting: to `CCCNc1cc(C)nc(NC(=O)Nc2ccc3c(c2)OCCO3)n1` [Compound 296] belongs below 1000 nM. The same measure, in the same setting: to `Cc1cc(NCCN(C)C)nc(NC(=O)Nc2ccc(Cl)c(Cl)c2)n1` [Compound 11] belongs below 1000 nM; to `Cc1cc(NCC(F)(F)CO)nc(NC(=O)Nc2cccc(C(F)(F)F)c2)n1` [Compound 188], below 1000 nM. Compound `Cc1cc(NCCCN(C)C)nc(NC(=O)Nc2ccc(F)c(C(F)(F)F)c2)n1` [Compound 101, 3-(dimethylamino)-1-(2-{3-[4-fluoro-3-(trifluoromethyl)phenyl]ureido}-6-methyl-4-pyrimidinylamino)propane] came in with an IC50 in experiment [2] below 1000 nM.
